In this series the test system is CCRIS mutagenicity, Ames/micronucleus/aberration tests. As to the kind of experiment: CCRIS mutagenicity studies.
Setting [1] is: Test System: AMES SALMONELLA TYPHIMURIUM, Strain/Indicator: TA98, Metabolic Activation: NONE, Method: STANDARD PLATE.
Setting [2] is: Test System: AMES SALMONELLA TYPHIMURIUM, Strain/Indicator: TA100, Metabolic Activation: NONE, Method: STANDARD PLATE.
Where [3] appears, read: Test System: E. COLI, Strain/Indicator: WP2 UVRA, Metabolic Activation: NONE, Method: STANDARD PLATE.
Setting [4] is: Test System: AMES SALMONELLA TYPHIMURIUM, Strain/Indicator: TA100, Metabolic Activation: RAT, LIVER, S-9, AROCLOR 1254, Method: STANDARD PLATE.
[5] abbreviates: Test System: AMES SALMONELLA TYPHIMURIUM, Strain/Indicator: TA102, Metabolic Activation: NONE, Method: STANDARD PLATE.

Active and inactive are the calls of the source. No rule for the calls is given here.

Regarding `COc1ccc(C=O)cc1OC`, the mutagenic call was “inactive; negative” (Test System: AMES SALMONELLA TYPHIMURIUM, Strain/Indicator: TA98, Metabolic Activation: HAMSTER, LIVER, S-9, AROCLOR 1254 (10%), Method: PREINCUBATION); “inactive; negative” (Test System: AMES SALMONELLA TYPHIMURIUM, Strain/Indicator: TA98, Metabolic Activation: NONE, Method: PREINCUBATION); “inactive; negative” under setting [1]; “inactive; negative” (Test System: AMES SALMONELLA TYPHIMURIUM, Strain/Indicator: TA98, Metabolic Activation: RAT, LIVER, S-9, AROCLOR 1254 (10%), Method: PREINCUBATION); “inactive; negative” (Test System: AMES SALMONELLA TYPHIMURIUM, Strain/Indicator: TA100, Metabolic Activation: HAMSTER, LIVER, S-9, AROCLOR 1254 (10%), Method: PREINCUBATION); “inactive; negative” (Test System: AMES SALMONELLA TYPHIMURIUM, Strain/Indicator: TA100, Metabolic Activation: NONE, Method: PREINCUBATION). Moreover, the mutagenic call was “inactive; negative” under setting [2]; “inactive; negative” (Test System: AMES SALMONELLA TYPHIMURIUM, Strain/Indicator: TA100, Metabolic Activation: RAT LIVER S-9, AROCLOR 1254, Method: PREINCUBATION); “inactive; negative” (Test System: AMES SALMONELLA TYPHIMURIUM, Strain/Indicator: TA100, Metabolic Activation: RAT, LIVER, S-9, AROCLOR 1254 (10%), Method: PREINCUBATION); “inactive; negative” (Test System: AMES SALMONELLA TYPHIMURIUM, Strain/Indicator: TA102, Metabolic Activation: NONE, Method: PREINCUBATION); “inactive; negative” (Test System: AMES SALMONELLA TYPHIMURIUM, Strain/Indicator: TA102, Metabolic Activation: RAT LIVER S-9, AROCLOR 1254, Method: PREINCUBATION); “inactive; negative” (Test System: AMES SALMONELLA TYPHIMURIUM, Strain/Indicator: TA104, Metabolic Activation: NONE, Method: PREINCUBATION). In addition, the mutagenic call by setting is: (Test System: AMES SALMONELLA TYPHIMURIUM, Strain/Indicator: TA104, Metabolic Activation: RAT LIVER S-9, AROCLOR 1254, Method: PREINCUBATION) “inactive; negative”; (Test System: AMES SALMONELLA TYPHIMURIUM, Strain/Indicator: TA1535, Metabolic Activation: HAMSTER, LIVER, S-9, AROCLOR 1254 (10%), Method: PREINCUBATION) “inactive; negative”; (Test System: AMES SALMONELLA TYPHIMURIUM, Strain/Indicator: TA1535, Metabolic Activation: NONE, Method: PREINCUBATION) “inactive; negative”; (Test System: AMES SALMONELLA TYPHIMURIUM, Strain/Indicator: TA1535, Metabolic Activation: RAT, LIVER, S-9, AROCLOR 1254 (10%), Method: PREINCUBATION) “inactive; negative”; (Test System: AMES SALMONELLA TYPHIMURIUM, Strain/Indicator: TA1537, Metabolic Activation: HAMSTER, LIVER, S-9, AROCLOR 1254 (10%), Method: PREINCUBATION) “inactive; negative”; (Test System: AMES SALMONELLA TYPHIMURIUM, Strain/Indicator: TA1537, Metabolic Activation: NONE, Method: PREINCUBATION) “inactive; negative”. Moreover, the mutagenic call by setting is: (Test System: AMES SALMONELLA TYPHIMURIUM, Strain/Indicator: TA1537, Metabolic Activation: RAT, LIVER, S-9, AROCLOR 1254 (10%), Method: PREINCUBATION) “inactive; negative”; (Test System: E. COLI, Strain/Indicator: CM561 LEXA, Metabolic Activation: NONE, Method: STANDARD PLATE) “inactive; negative”; (Test System: E. COLI, Strain/Indicator: CM611 UVRA/LEXA, Metabolic Activation: NONE, Method: STANDARD PLATE) “inactive; negative”; under setting [3], “inactive; negative”.
On to `C1OC1C1CO1` (centres undefined), for which the mutagenic call by setting is: (End Point: IN VITRO CHROMOSOMAL ABERRATIONS, Test System: HUMAN PERIPHERAL LYMPHOCYTES, Metabolic Activation: NONE, Method: FISH (DUAL COLOR FOR CHROMOSOMES 7, 8, 12 AND X)) “active; positive (hyperdiploidy of chromosomes 12 and x)”; (End Point: IN VITRO MICRONUCLEUS, Test System: HUMAN PERIPHERAL LYMPHOCYTES, Metabolic Activation: NONE) “active; positive”; under setting [1], “active; positive”; under setting [2], “active; positive”; under setting [4], “active; positive”; under setting [5], “active; positive”. For the same molecule, the mutagenic call is “active; positive” (Test System: AMES SALMONELLA TYPHIMURIUM, Strain/Indicator: TA1535, Metabolic Activation: NONE, Method: STANDARD PLATE); “inactive; negative” (Test System: AMES SALMONELLA TYPHIMURIUM, Strain/Indicator: TA7004, Metabolic Activation: NONE, Method: STANDARD PLATE); “inactive; negative” (Test System: AMES SALMONELLA TYPHIMURIUM, Strain/Indicator: TA7005, Metabolic Activation: NONE, Method: STANDARD PLATE); “active; positive” (Test System: CHINESE HAMSTER V-79, Strain/Indicator: V-79/6-THIOGUANINE, Metabolic Activation: NONE, Method: FLASK ASSAY); “active; positive” (Test System: UDS MOUSE EPIDERMIS IN VIVO/IN VITRO, Strain/Indicator: HOS:HR-1/THYMIDINE INCORPORATION, Metabolic Activation: NONE, Method: LIQUID SCINTILLATION).
In the case of `ClCc1cccnc1`, the mutagenic call under setting [1] is “inactive; negative”; the mutagenic call (Test System: AMES SALMONELLA TYPHIMURIUM, Strain/Indicator: TA98, Metabolic Activation: RAT, LIVER, S-9, AROCLOR 1254, Method: STANDARD PLATE) is “inactive; negative”; the mutagenic call under setting [4] is “active; positive”; the mutagenic call under setting [5] was “inactive; negative”; the mutagenic call (Test System: AMES SALMONELLA TYPHIMURIUM, Strain/Indicator: TA102, Metabolic Activation: RAT, LIVER, S-9, AROCLOR 1254, Method: STANDARD PLATE) was “inactive; negative”; the mutagenic call (Test System: E. COLI, Strain/Indicator: WP2 UVRA, Metabolic Activation: MOUSE, LIVER, S-9, AROCLOR 1254, Method: STANDARD PLATE) was “inactive; negative”. Besides, the mutagenic call under setting [3] was “inactive; negative”; the mutagenic call (Test System: E. COLI, Strain/Indicator: WP2 UVRA, Metabolic Activation: RAT, LIVER, S-9, AROCLOR 1254, Method: STANDARD PLATE) was “inactive; negative”; the mutagenic call (Test System: E. COLI, Strain/Indicator: WP2 UVRA, Metabolic Activation: RAT, LIVER, S-9, Method: STANDARD PLATE) was “inactive; negative”; the mutagenic call (Test System: MOUSE LYMPHOMA, Strain/Indicator: L5178Y (TK+/TK-), Metabolic Activation: NONE, Method: SUSPENSION/PLATE) is “active; positive”; the mutagenic call (Test System: MOUSE LYMPHOMA, Strain/Indicator: L5178Y (TK+/TK-), Metabolic Activation: RAT, LIVER, S-9, AROCLOR 1254, Method: SUSPENSION/PLATE) is “active; positive”.
For `Nc1ccc2cccc3c2c1-c1ccccc1-3`, the mutagenic call runs as follows: (Test System: AMES SALMONELLA TYPHIMURIUM, Strain/Indicator: TA98, Metabolic Activation: RAT, LIVER, S-9, AROCLOR 1254 (2 OR 4%), Method: STANDARD PLATE) “active; positive”; (Test System: AMES SALMONELLA TYPHIMURIUM, Strain/Indicator: TA100, Metabolic Activation: RAT, LIVER, S-9, AROCLOR 1254 (4%), Method: STANDARD PLATE) “active; positive”; (Test System: AMES SALMONELLA TYPHIMURIUM, Strain/Indicator: TA1535, Metabolic Activation: RAT, LIVER, S-9, AROCLOR 1254 (4%), Method: STANDARD PLATE) “inactive; negative”; (Test System: AMES SALMONELLA TYPHIMURIUM, Strain/Indicator: TA1537, Metabolic Activation: RAT, LIVER, S-9, AROCLOR 1254 (4%), Method: STANDARD PLATE) “active; positive”.
As for `Cc1ccc2c(c1)c(=NC(=O)c1cccc([N+](=O)[O-])c1)sn2C(=O)c1cccc([N+](=O)[O-])c1`, the mutagenic call (Test System: AMES SALMONELLA TYPHIMURIUM, Strain/Indicator: TA100, Metabolic Activation: S-9, Method: STANDARD PLATE) is “active; positive”.

Values taken from PubChem BioAssay AID1259407 (Chemical Carcinogenesis Research Information System (CCRIS), 2018).
